From patent publication US6861220B2, “Genetic screening methods” (Ramot University Authority for Applied Research & …, priority 1999, dated 2005)

Tested on: Clone 12 cells (HGPRT-deficient HT1080 fibrosarcoma cells)
Assay: Chemical synthetic lethality screen: retention of HGPRT-tpzGFP survival plasmid (tpzGFP/sphGFP fluorescence ratio) in microplates
Assay type: cell-based, human
Details: for detection of chemical synthetic lethality (survival plasmid retention) in blind large-scale test: Clone 12 in 1200 wells, medium lacking selection, chemicals added at random together with guanine (FIG. 9)
Description: For pIS, selection in G418 (Calbiochem) was carried out at 400 microg/ml, while maintenance was at 50 microg/ml. For the HGPRT-tpzGFP survival plasmid, selection in hygromycin B (Sigma) was at 150 microg/ml while maintenance was at 50 microg/ml. […] GATA medium was DMEM with 10% dialyzed FCS, plus 3.5 microM guanine-HCI, 0.4 microM aminopterin, 16 microM thymidine and 35 microM adenine.
For fluorescent scanning, cells were trypsinized and distributed at 30,000 cells/well into 96 well microplates (TPP). Growth medium was changed twice a week and plates were grown for up to 75 days. […] Plates were prepared for scanning by replacement of medium in wells with Hank's balanced salt solution without phenol red. […] Plates were scanned with an FL600 microplate fluorescence reader using the KC4 software (Biotek Instruments). Excitation for sphGFP was at 380 nin with a bandpass of 20 nm, while emission was measured at 508 nm with a bandpass of 40 nm.
Excitation of tpzGFP was at 495 nm with a bandpass of 20 mn, while emission was measured at 535 nm with a bandpass of 40 nm. To avoid possible artifacts, all wells within a given experiment were assayed for the fluorescence of the two GFP mutants using fixed sensitivities. Integrated sphGFP was used as an internal control for the number of cells. This was achieved by dividing the relative fluorescence resulting from the episomal tpzGFP vector by the relative fluorescence for sphGFP for each well. This ratio was then divided by the average fluorescence ratio for cells maintained under hygromycin B or HAT selection, resulting in a value representing percent remaining fluorescence for each well as compared to wells maintained under continuous selection. The data points are an average for all wells and the calculated standard deviation. Cells were returned to growth medium immediately following scanning.
Its loss or retention can be determined by measuring its normalized fluorescence in a microplate reader. It was then necessary to test whether these features would enable the tracing of a synthetic lethality condition. […] Under these conditions, normal HGPRT-positive cells can use supplied guanine to produce GMP via the salvage pathway, and survive, while HGPRT-deficient cells die.

| Structure (SMILES) | detection of chemical synthetic lethality (survival plasmid retention) in blind large-scale test | retention of the survival plasmid over time (Clone 12 cells, GATA medium + 12.5 microgram/ml MPA, entire time period (FIG. 6)) | retention of the survival plasmid (tpzGFP to sphGFP fluorescence ratio), dose response (Clone 12 cells, GATA medium + MPA at successively higher concentrations, read after two weeks (FIG. 5)) | retention of the survival plasmid (Clone 12 cells, 96 well plates, serial dilutions of drug and of guanine, three weeks (FIGS. 7, 8)) |
| --- | --- | --- | --- | --- |
| N[C@@H](CN(O)N=O)C(=O)O [alanosine] | not retained | – | – | – |
| COc1c(C)c2c(c(O)c1C/C=C(\C)CCC(=O)O)C(=O)OC2 [MPA, mycophenolic acid] | clearly detected | retention of the survival plasmid for the entire time period | caused increasing retention of the survival plasmid | – |
| NC(=O)c1ncn([C@@H]2O[C@H](CO)[C@@H](O)[C@H]2O)c1O [mizoribine] | clearly detected | – | – | caused retention of the survival plasmid |
